Where “and” joins values, the source holds several entries; their conditions need not be identical. Identical values can stand only once. Like-named read-outs stand apart in the source and are kept apart here.
Key:
bPARG Glu708Asn mutant = conditions: ref supplemental 2 (Patel et al., 2005); cited from earlier work
bPARG Glu728Asn mutant = conditions: cited from earlier work
wild-type bPARG = biological target: wild-type bPARG; set-up: method as in PMID 15658938; conditions: SPR with immobilized 8-AH-ADP-HPD; cited from earlier work
bPARG Glu757Asn mutant = system: bPARG Glu757Asn mutant; set-up: method as in supplemental 2 (Patel et al., 2005); conditions: ref supplemental 2 (Patel et al., 2005); cited from earlier work
bPARG Asp738Asn mutant = conditions: ref supplemental 2 (Patel et al., 2005); cited from earlier work
bPARG Tyr796Trp mutant = system: bPARG Tyr796Trp mutant; set-up: method as in supplemental 6 (Koh et al., 2003); conditions: ref supplemental 6 (Koh et al., 2003); cited from earlier work
bPARG Glu756Asn mutant = system: bPARG Glu756Asn mutant; set-up: method as in supplemental 2 (Patel et al., 2005); conditions: ref supplemental 2 (Patel et al., 2005); cited from earlier work
hPARG4 (hPARG(448–976)) [1] = biological target: T1, hPARG4 (hPARG(448–976)) (Homo sapiens, UniProt Q86W56); assay: Isothermal titration calorimetry; format: binding; conditions: 25°C
T1 construct: a codon optimized gene encoding human PARG(448–976) was synthesized by GeneArt; 6His (TEV-cleavable) (N, cleaved yes); made in house; host or cells: E. coli BL21 (DE3) GOLD
Method: (§1) This was carried out using an iTC200 instrument (Microcal, GE Healthcare, Northampton, MA) at 25°C in the following buffer: 20 mM HEPES pH 7, 150 mM NaCl, 2 mM DTT, 0.02% NaN3. Protein concentrations were typically 30 µM in the cell with ligand concentrations of at least 10 fold this concentration in the syringe. Typical injection protocols of 19×2 µL injections, spaced at 2 or 3 minute intervals were used. Curves were fitted by non-linear regression analysis using a one-site binding model provided by MicroCal Origin software (version 7).

hPARG (full-length) [2] = biological target: T2, hPARG (full-length) (Homo sapiens, UniProt Q86W56); assay: Isothermal titration calorimetry; format: binding; conditions: 25°C
T2 construct: direct expression of hPARG(1–976) with a C-terminal hexahistidine tag; made in house; host or cells: E. coli BL21 (DE3) GOLD
Method: as §1

[3] = system: bovine PARG (bPARG), purified full-length protein; set-up: method as in PMID 13678410; conditions: read-out: IC50, literature value; cited from earlier work
hPARG4 (hPARG(448–976)) [4] = biological target: T1, hPARG4 (hPARG(448–976)); assay: SPR binding to immobilised PARG, steady state fits; conditions: 25°C, steady state fit
Method: (§2) Biosensor (SPR) analyses were conducted using a BIAcore 3000 or BIAcore S51 instrument. Research grade CM5 chips and coupling reagents (N-ethyl-N′-dimethylaminopropylcarbodiimide, EDC; N-hydroxysuccinimide, NHS; and 1 M ethanolamine HCl, pH 8.5) were purchased from BIAcore (GE Healthcare, Northampton, MA).
(§3) A CM5 chip was docked into the instrument, primed 5 times with filtered and degassed running buffer containing 50 mM HEPES pH 7, followed by preconditioning at 100 µL/min using two consecutive aliquots of 50 µL each of 10 mM HCl, 50 mM NaOH, 0.1% (w/v) SDS, 0.085% (v/v) H3PO4. PARG surfaces were prepared by standard amine coupling via exposed amines on PARG. Immobilisations were conducted at 25°C in 50 mM HEPES at a flow rate of 5 µL/min. Flow cells were activated for 7 min by injecting a 35 µL mixture of 50 mM NHS: 200 mM EDC. Subsequently, 35 µL of 100 µg/mL PARG was injected for 7 min, followed by a 35 µL injection of ethanolamine. Typical immobilisation levels ranged from 3000 to 5000 resonance units (RU). Nonderivatised flow cells served as reference surfaces.
(§4) Studies of PARG inhibitor binding were conducted at 25°C. […] To calculate affinities, SPR equilibrium binding data, consisting of Req values from 8–10 point concentration series, were analyzed by fitting a simple 1∶1 binding model to yield Rmax and Kd values using non-linear regression analysis in Grafit 6 (Erithacus Software).

hPARG (full-length) [5] = biological target: T2, hPARG (full-length); assay: SPR binding to immobilised PARG, steady state fits; conditions: 25°C, steady state fit
Method: as §2, §3, §4

[6] = biological target: T3, hPARG (full-length recombinant hPARG(1–976)-6His) (Homo sapiens, UniProt Q86W56); assay: PARG activity HTRF assay (PAR-PARP1 hydrolysis); format: biochemical; conditions: hPARG
T3 construct: direct expression of hPARG(1–976) with a C-terminal hexahistidine tag; made in house; host or cells: E. coli BL21 (DE3) GOLD
Method: (§5) PARG activity was assessed using an HTRF assay which will be described in detail elsewhere (Bennett et al, manuscript in preparation). […] Following this incubation, biotinylated NAD^+ at a molar ratio to PARylated PARP1 of 0.7∶1 was added and incubation continued for 5 minutes. The reaction was terminated by addition of a PARP1-specific inhibitor to a final concentration of 4.7 µM. The solution was dialysed overnight to remove excess biotinylated NAD^+ and compound, and stored at −80°C. PARG activity was measured in a 384-well format HTRF assay using the biotin-labelled PARylated PARP1 as a substrate. Residual biotinylated PARylated PARP1 was detected by addition of a detection mix containing anti-6His–XL antibody (Cisbio) and streptavidin europium cryptate (Cisbio), and then monitoring the ratio of emission at 665 nm to 612 nm upon excitation at 340 nm.
Inhibition by ADP-HPD was measured using serial dilutions over the range 100 µM to 100 pM compound from a 1 mM stock in water. Assays contained 30 pM purified recombinant PARG and 9.67 nM PAR-PARP1 in a final volume of 9 µL assay buffer (50 mM MOPS pH 7.4, 0.1 mg/mL BSA, 3 mM EDTA, 0.4 mM EGTA, 1 mM DTT, 0.01% v/v Tween20, 50 mM KCl). Reactions were allowed to proceed for 8 minutes prior to the addition of 3 µL detection reagents (50 mM MOPS pH 7.4, 0.1 mg/mL BSA, 0.1 M Potassium Fluoride, 14 nM anti-6HIS-XL antibody, 0.75 nM Streptavidin Europium Cryptate). IC50s were calculated using a time-point of 1.5 hours from the addition of detection reagents.
Here, 17.5 nL of ADP-HPD ([…]) or OA-ADP-HPD (21.43 mM in DMSO) were dispensed by an ECHO555 (Labcyte Inc.) into Greiner white 1536-well plates over the specified range: ADP-HPD (100 µM to 100 pM) and OA-ADP-HPD (500 µM to 30 nM).
ADP-HPD and OA-ADP-HPD inhibition data were visualised in Prism (GraphPad), and IC50s derived from a non-linear regression analysis of the values from three separate experiments (run in triplicate) fit to a sigmoidal dose-response curve.

[7] = system: bovine PARG (bPARG), recombinant catalytic domain; set-up: method as in PMID 13678410; conditions: recombinant catalytic domain of bPARG; read-out: IC50, literature value; cited from earlier work
[8] = biological target: T4, hPARG26 (hPARG(448–976 [K616A, Q617A, K618A, E688A, K689A & K690A])) (Homo sapiens, UniProt Q86W56, E688A/K616A/K618A/K689A/K690A/Q617A); assay: PARG activity HTRF assay (PAR-PARP1 hydrolysis); format: biochemical; conditions: 9 µL HTRF
T4 construct: a codon optimized gene encoding human PARG(448–976 [K616A, Q617A, K618A, E688A, K689A, K690A]); 6His (TEV-cleavable) (N, cleaved yes); made in house; host or cells: E. coli BL21 (DE3) GOLD (shake flasks, as for hPARG4)
Method: as §5
(§6) Inhibition by ADP-HPD was measured using serial dilutions over the range 100 µM to 100 pM compound from a 1 mM stock in water. Assays contained 30 pM purified recombinant PARG and 9.67 nM PAR-PARP1 in a final volume of 9 µL assay buffer (50 mM MOPS pH 7.4, 0.1 mg/mL BSA, 3 mM EDTA, 0.4 mM EGTA, 1 mM DTT, 0.01% v/v Tween20, 50 mM KCl). […] IC50s were calculated using a time-point of 1.5 hours from the addition of detection reagents. […]

hPARG4 (hPARG(448–976)) [9] = biological target: T1, hPARG4 (hPARG(448–976)); assay: PARG activity HTRF assay (PAR-PARP1 hydrolysis); format: biochemical; conditions: 9 µL HTRF
Method: as §5, §6

bPARG = biological target: bPARG; set-up: method as in PMID 7830282; conditions: read-out: KD, literature values for bPARG; cited from earlier work

T3 sequence (Q86W56 whole entry): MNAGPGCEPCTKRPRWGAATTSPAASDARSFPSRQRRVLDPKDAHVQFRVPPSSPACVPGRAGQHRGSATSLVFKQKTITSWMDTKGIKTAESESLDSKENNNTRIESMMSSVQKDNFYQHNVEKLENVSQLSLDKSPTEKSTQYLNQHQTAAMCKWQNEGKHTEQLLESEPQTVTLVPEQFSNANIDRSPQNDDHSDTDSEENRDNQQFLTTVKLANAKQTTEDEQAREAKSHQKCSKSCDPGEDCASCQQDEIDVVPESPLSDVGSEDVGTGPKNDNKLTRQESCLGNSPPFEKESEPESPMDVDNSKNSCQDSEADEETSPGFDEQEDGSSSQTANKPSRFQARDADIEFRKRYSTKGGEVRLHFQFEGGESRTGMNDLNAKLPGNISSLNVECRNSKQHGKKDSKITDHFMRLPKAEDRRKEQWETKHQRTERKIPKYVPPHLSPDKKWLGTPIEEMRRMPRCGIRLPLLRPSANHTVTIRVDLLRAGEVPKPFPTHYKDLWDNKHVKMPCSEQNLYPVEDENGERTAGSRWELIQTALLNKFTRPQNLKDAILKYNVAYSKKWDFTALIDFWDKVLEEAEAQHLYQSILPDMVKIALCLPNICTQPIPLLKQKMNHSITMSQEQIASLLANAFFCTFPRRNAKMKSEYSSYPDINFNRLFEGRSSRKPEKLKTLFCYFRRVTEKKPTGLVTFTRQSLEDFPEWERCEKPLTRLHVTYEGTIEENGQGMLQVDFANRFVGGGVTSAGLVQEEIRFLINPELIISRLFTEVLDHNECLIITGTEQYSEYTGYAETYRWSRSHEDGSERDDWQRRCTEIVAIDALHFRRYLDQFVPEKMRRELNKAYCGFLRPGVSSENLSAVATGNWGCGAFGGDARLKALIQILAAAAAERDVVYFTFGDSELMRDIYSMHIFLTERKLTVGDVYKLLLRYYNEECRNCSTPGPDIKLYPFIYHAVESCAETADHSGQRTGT
T2 sequence (Q86W56 whole entry): as above
T1 sequence (Q86W56 448-976): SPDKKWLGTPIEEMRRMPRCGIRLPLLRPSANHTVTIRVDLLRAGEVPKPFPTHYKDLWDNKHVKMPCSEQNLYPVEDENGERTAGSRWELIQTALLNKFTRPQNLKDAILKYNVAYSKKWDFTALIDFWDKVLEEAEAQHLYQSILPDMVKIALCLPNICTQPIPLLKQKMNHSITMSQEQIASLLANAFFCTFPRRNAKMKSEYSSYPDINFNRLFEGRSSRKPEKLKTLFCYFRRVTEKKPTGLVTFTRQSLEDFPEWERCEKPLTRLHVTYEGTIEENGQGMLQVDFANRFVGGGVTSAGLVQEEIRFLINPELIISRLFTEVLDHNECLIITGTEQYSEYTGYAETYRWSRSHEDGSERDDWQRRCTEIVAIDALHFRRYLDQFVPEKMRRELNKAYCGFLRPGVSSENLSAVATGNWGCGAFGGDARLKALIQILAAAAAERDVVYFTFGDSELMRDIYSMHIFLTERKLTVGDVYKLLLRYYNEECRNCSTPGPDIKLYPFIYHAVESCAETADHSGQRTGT
T4 sequence (Q86W56 448-976 K616A/Q617A/K618A/E688A/K689A/K690A): as the sequence (Q86W56 448-976) above, with K169A, Q170A, K171A, E241A, K242A, K243A counted along it

Which results are given for 8-aminohexylaminoADP-HPD [8-AH-ADP-HPD]?
increase in affinity versus wild-type (bPARG Glu708Asn mutant): No effect on catalytic activity; 2.5-fold increase in affinity for 8-AH-ADP-HPD; Kd (bPARG Glu728Asn mutant; bPARG Glu728Asn (E727N in hPARG), SPR with immobilized 8-AH-ADP-HPD): 3.2 nM; increase in affinity versus wild-type (bPARG Glu728Asn mutant; bPARG Glu728Asn, ref supplemental 2 (Patel et al., 2005)): 18% wild-type specific activity; 2.5-fold increase in affinity for 8-AH-ADP-HPD; Kd (wild-type bPARG): 8.2 nM; effect of mutation on affinity (bPARG Glu757Asn mutant): No detectable activity; no effect on 8-AH-ADP-HPD affinity; decrease in affinity versus wild-type (bPARG Asp738Asn mutant): No detectable activity; 1.4-fold decrease in affinity for 8-AH-ADP-HPD; effect of mutation on binding (bPARG Tyr796Trp mutant): Limited effect on catalytic activity and 8-AH-ADP-HPD binding; increase in affinity versus wild-type (bPARG Glu756Asn mutant): No detectable activity; 8-fold increase in 8-AH-ADP-HPD affinity

For `Nc1ncnc2c1ncn2C1OC(COP(=O)(O)OP(=O)(O)OCC2NCC(O)C2O)C(O)C1O` (stereo not shown) [ADP-HPD, adenosine 5′-diphosphate (hydroxymethyl)pyrrolidinediol], which Kd (hPARG4 (hPARG(448–976)) [1]; read-out: KD (ITC)) is on record?
Its Kd is 132 ± 14 nM.

What about the ΔG (hPARG4 (hPARG(448–976)) [1]; ITC) of the same molecule?
The ΔG was -9.42 ± 0.072 kcal/mol.

What about the ΔH (hPARG4 (hPARG(448–976)) [1]; ITC) of the same molecule?
Its ΔH is -13.4 ± 0.096 kcal/mol.

And the ΔS (hPARG4 (hPARG(448–976)) [1]; ITC)?
The ΔS was −56.1±0.5 J/mol/K.

What about the Kd (hPARG (full-length) [2]; values heavily influenced by base-line noise (Figure S2), read-out: KD (ITC)) of the same molecule?
The Kd was 416 ± 89.9 nM.

And the ΔG (hPARG (full-length) [2]; ITC)?
Its ΔG is -8.7 ± 0.12 kcal/mol.

What about the ΔH (hPARG (full-length) [2]; ITC) of the same molecule?
Its ΔH is -7.36 ± 0.0096 kcal/mol.

What about the ΔS (hPARG (full-length) [2]; ITC) of the same molecule?
The ΔS was “+18.8±1.7 J/mol/K”.

What about the IC50 [3] of the same molecule?
The IC50 was 330 nM.

What about the Kd (hPARG4 (hPARG(448–976)) [4]) of the same molecule?
The Kd was 64.3 ± 2.6 nM.

What about the Kd (hPARG (full-length) [5]) of the same molecule?
Its Kd is 44.8 ± 2.9 nM.

And the IC50 ([6]; 384-well HTRF, 9 µL, 30 pM PARG, 9.67 nM PAR-PARP1, 8 min reaction, read-out: IC50)?
The IC50 was 3000 nM and 3100 nM.

And the IC50 ([6]; conditions of the High Throughput Screening campaign, read-out: IC50 under HTS campaign conditions)?
The IC50 was ~600 nM.

What about the IC50 [7] of the same molecule?
The IC50 was 1000 to 1400 nM.

And the IC50 [8]?
The IC50 was 1100 ± 220 nM.

What about the IC50 (hPARG4 (hPARG(448–976)) [9]) of the same molecule?
The IC50 was 970 ± 240 nM.

What about the Kd (bPARG) of the same molecule?
Its Kd is 50 to 80 nM.

— article PMC3519477, “Structures of the Human Poly (ADP-Ribose) Glycohydrolase Catalytic Domain Confirm Catalytic Mechanism and Explain Inhibition by ADP-HPD Derivatives” (PLoS ONE, 2012)
